According to patent publication US10788502B2, “Erythrocyte sedimentation inhibitor” (FUJIMORI KOGYO CO., LTD., priority 2014, dated 2020):

Columns and labels:
Solubility in water = assay type: physicochemical
[1] = test system: citrate blood (thrombus formation; blood coagulation capacity and platelet function); assay: Microchip capillary perfusion: pressure changes caused by formation of thrombi composed of fibrin and platelets; assay type: cell-based; conditions: for blood sedimentation: blood sample of the perfusion test; for thrombus formation (pressure pattern during perfusion): perfusion 10 μl/min for 30 minutes, collagen and tissue thromboplastin coated capillary
Method: The apparatus described in FIG. 12 of Patent Document 1 was used.
A capillary having a width of 300 μm, depth of 80 μm, and length of 1.5 cm formed on a microchip was coated with type I collagen (manufactured by Nitta Gelatin Inc.) and tissue thromboplastin (manufactured by Sysmex Corporation). The capillary was perfused with citrate blood supplemented with CTI (corn trypsin inhibitor) (final concentration, 50 μg/ml), calcium chloride (final concentration, 12 mM), and DIDS (final concentration, 0 or 1.5 mg/ml) or DNDS (final concentration, 0.3 mg/ml) fed from a blood container at a flow rate of 10 μl/min for 30 minutes, while changes in the pressure caused by formation of thrombi composed of fibrin and platelets were continuously measured.
FIG. 5 is a graph showing the pressure patterns during the perfusion with blood samples. The pressure reflects formation of thrombi composed of fibrin and activated platelets, and comprehensively reflects the blood coagulation capacity and the platelet function. […] B represents the pressure changes in the case of the blood sample supplemented with DIDS (1.5 mg/ml), and C represents the pressure changes in the case of the perfusion with the blood supplemented with DNDS (0.3 mg/ml).

[2] = test system: erythrocytes in blood anticoagulated with sodium citrate; assay: Blood sedimentation of citrated blood left to stand in a glass tube or blood container; assay type: cell-based; conditions: 30 minutes
Method: (§1) A solution of DIDS (Tokyo Chemical Industry Co., Ltd.) in physiological saline was added to blood anticoagulated with sodium citrate to a final concentration of 0.15 mg/ml or 1.5 mg/ml, respectively. The resulting mixture was mixed, and placed in a glass tube having a diameter of 6 mm (FIG. 1) or a blood container for measurement of thrombus formation (FIG. 2), followed by being left to stand.
as §1, with “DNDS” for “DIDS”, “0.02 mg/ml, 0.1 mg/ml,” for “0.15 mg/ml”, “0.2” for “1.5”, “3),” for “1) or a blood container for measurement of thrombus formation (FIG. 2),”
A solution of DNDS (Tokyo Chemical Industry Co., Ltd.) in physiological saline was added to blood anticoagulated with sodium citrate to a final concentration of 0.5 mg/ml or 1.0 mg/ml, respectively. The resulting mixture was mixed, and placed in a glass tube having a diameter of 6 mm. The glass tube was then inclined at an angle of 30°, and left to stand (FIG. 4).

For O=[N+]([O-])c1ccc(C=Cc2ccc([N+](=O)[O-])cc2S(=O)(=O)[O-])c(S(=O)(=O)[O-])c1.[Na+].[Na+] [DNDS, disodium 4,4′-dinitrostilbene-2,2′-disulfonate], the solubility in water (Solubility in water) was “soluble in water”, the blood sedimentation ([1]; 0.3 mg/ml) was “strongly suppresses blood sedimentation” and the “thrombus formation (pressure pattern during perfusion)” value ([1]; 0.3 mg/ml) was “does not affect thrombus formation”. The “blood sedimentation relative to the control” value ([2]; 0.02 mg/ml final concentration, 6 mm glass tube) was “suppressed”, the “blood sedimentation relative to the control” value ([2]; 0.1 mg/ml final concentration, 6 mm glass tube) was “suppressed” and the blood sedimentation ([2]; 0.2 mg/ml final concentration, 6 mm glass tube) was “almost completely suppressed”. The “blood sedimentation relative to the control” value ([2]; 0.5 mg/ml final concentration, 6 mm glass tube inclined at an angle of 30°) was “suppressed” and the “blood sedimentation relative to the control” value ([2]; 1.0 mg/ml final concentration, 6 mm glass tube inclined at an angle of 30°) was “suppressed”.
With O=S(=O)(O)c1cc(N=C=S)ccc1C=Cc1ccc(N=C=S)cc1S(=O)(=O)O [DIDS, 4,4′-Diisothiocyanatostilbene-2,2′-disulfonic acid] the blood sedimentation ([1]; 1.5 mg/ml) was “strongly suppresses blood sedimentation”, the “thrombus formation (pressure pattern during perfusion)” value ([1]; 1.5 mg/ml) was “does not affect thrombus formation” and the blood sedimentation ([2]; 0.15 mg/ml final concentration, 6 mm glass tube or blood container for measurement of thrombus formation) was “rather suppressed”. For the same molecule, the blood sedimentation ([2]; 1.5 mg/ml final concentration, glass tube and container having an inclined bottom) was “completely suppressed”.
